Laboratory results reported in patent publication US12600709B2, “Nonpeptide somatostatin type 5 receptor agonists and uses thereof” (Crinetics Pharmaceuticals, Inc., priority 2019, dated 2026).
Where two headings read alike, the source gives them in different places.

Columns and labels:
[1] = target: T1, human somatostatin receptor subtype 5 (Homo sapiens, UniProt P35346); test: cAMP assay for SST5R (inhibition of cAMP in CHO-K1 cells); type: cell-based; conditions: for EC50: inhibition of cAMP via human SST5 receptor, read-out: SST5 potency; for Fold selectivity for SST5 vs SST2: class symbols, SST5 receptor over SST2 receptor
T1 construct: expressed in transfected cells
T1 sequence (P35346 whole entry): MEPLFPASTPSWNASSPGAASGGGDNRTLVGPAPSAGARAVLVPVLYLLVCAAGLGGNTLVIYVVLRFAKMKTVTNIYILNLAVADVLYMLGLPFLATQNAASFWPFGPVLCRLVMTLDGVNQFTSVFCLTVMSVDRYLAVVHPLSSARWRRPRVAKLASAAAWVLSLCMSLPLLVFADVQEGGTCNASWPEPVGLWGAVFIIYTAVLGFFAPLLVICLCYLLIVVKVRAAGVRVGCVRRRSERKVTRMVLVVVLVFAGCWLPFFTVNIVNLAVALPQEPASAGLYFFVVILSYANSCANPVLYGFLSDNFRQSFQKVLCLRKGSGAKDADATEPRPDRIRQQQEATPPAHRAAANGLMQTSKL
Summary of the method: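 CHO-K1 cells stably expressing human SSTR5 were treated 20 min at 37 °C with compounds plus 1.6 μM NKH477 in HBSS, 0.5 mM HEPES pH 7.4, 0.1% BSA, 0.2 mM IBMX. Lysate cAMP measured by HTRF against a standard curve; EC50 from cAMP-versus-concentration plots.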

[2] = target: T2, human somatostatin receptor subtype 2 (Homo sapiens, UniProt P30874); test: cAMP assay for SST2R (inhibition of cAMP in CHO-K1 cells); type: cell-based; conditions: Table B; inhibition of cAMP via human SST2 receptor; read-out: SST2 potency
T2 construct: expressed in transfected cells
T2 sequence (P30874 whole entry): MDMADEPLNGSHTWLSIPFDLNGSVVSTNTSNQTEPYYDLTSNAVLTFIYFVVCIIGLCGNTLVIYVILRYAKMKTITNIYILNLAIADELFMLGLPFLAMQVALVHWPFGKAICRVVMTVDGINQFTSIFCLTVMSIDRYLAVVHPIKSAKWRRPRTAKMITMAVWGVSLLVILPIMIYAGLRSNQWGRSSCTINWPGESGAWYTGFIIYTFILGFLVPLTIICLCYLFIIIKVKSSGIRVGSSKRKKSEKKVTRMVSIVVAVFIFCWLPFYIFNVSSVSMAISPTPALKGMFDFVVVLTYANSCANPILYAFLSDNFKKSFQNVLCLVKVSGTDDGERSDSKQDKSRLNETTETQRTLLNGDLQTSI
Excerpt: General overview: All five SSTR subtypes are Gi coupled G-protein coupled receptors (GPCRs) that lead to decreases in intracellular cyclic AMP (cAMP) when activated by an agonist. Therefore, measurement of intracellular cAMP levels can be used to assess whether compounds of the invention are agonists of SSTR subtypes (John Kelly, Troy Stevens, W. Joseph Thompson, and Roland Seifert, Current Protocols in Pharmacology, 2005, 2.2.1-2.2). One example of an intracellular cAMP assay is described below.
cAMP Assay Protocol for SST2R:
Four days prior to the assay, 5,000 Chinese hamster ovary cells (CHO-K1, ATCC #CCL-61) stably expressing the human somatostatin receptor subtype 2 are plated in each well of a 96-well tissue culture-treated plate in Ham's F12 growth media (ThermoFisher #10-080-CM) supplemented with 10% donor bovine serum (Gemini Bio-Products #100-506), 100 U/mL penicillin; 100 μg/mL streptomycin; 2 mM L-glutamine (Gemini Bio-Products #400-110) and 0.2 mg/mL hygromycin B (GoldBio #31282-04-9). The cells are cultured at 37° C., 5% CO2 and 95% humidity. On the day of the assay, the media is aspirated and the cells are treated with 50 μL of 1.6 μM NKH477 (Sigma #N3290) plus various dilutions of compounds of the invention in assay buffer [1× Hank's Balanced Salt Solution (ThermoFisher #SH3058802), 0.5 mM HEPES pH 7.4, 0.1% bovine serum albumin, 0.2 mM 3-Isobutyl-1-methylxanthine (IBMX, VWR #200002-790)]. The cells are incubated for 20 minutes at 37° C. […] The cells are treated with 50 μL of lysis buffer (HRTF cAMP kit, Cisbio). The lysate is transferred to 384-well plates and cAMP detection and visualization antibodies are added and incubated for 1-24 hours at room temperature. The time-resolved fluorescent signal is read with a Tecan M1000Pro multiplate reader. The intracellular cAMP concentrations are calculated by regression to a standard curve and are plotted vs. the concentration of the compounds of the invention and the EC50 of the compounds are calculated using standard methods. All data manipulations are in GraphPad Prism v6 or v7.

| EC50 ([1]; Table A) | Fold selectivity for SST5 vs SST2 ([1]; Table B) | EC50 ([1]; Table B) | EC50 [2] | Structure (SMILES) |
| --- | --- | --- | --- | --- |
| < 10 nM | ++ (++=100 to 499) | < 10 nM | 100 to 1000 nM | CC1(C)CC(NC(=O)c2cncc(-c3cc(F)cc(F)c3)c2N2CC[C@](C)(N)C2)C1 [1-22, 4-[(3S)-3-amino-3-methylpyrrolidin-1-yl]-5-(3,5-difluorophenyl)-N-(3,3-dimethylcyclobutyl)pyridine-3-carboxamide] |
| < 10 nM | +++ (+++=>500) | < 10 nM | > 1000 nM | N[C@H]1CCN(c2c(C(=O)NC3CCC(F)(F)CC3)cnc(C(F)(F)F)c2-c2cc(F)cc(F)c2)C1 [1-214, 4-[(3S)-3-aminopyrrolidin-1-yl]-N-(4,4-difluorocyclohexyl)-5-(3,5-difluorophenyl)-6-(trifluoromethyl)pyridine-3-carboxamide] |
| < 10 nM | +++ (+++=>500) | < 10 nM | 100 to 1000 nM | C[C@]1(N)CCN(c2c(C(=O)NCC3(F)CCC3)cncc2-c2cc(F)cc(F)c2)C1 [1-47, 4-[(3S)-3-amino-3-methylpyrrolidin-1-yl]-5-(3,5-difluorophenyl)-N-[(1-fluorocyclobutyl)methyl]pyridine-3-carboxamide] |
| < 10 nM | +++ (+++=>500) | < 10 nM | 100 to 1000 nM | Cc1cc(C)cc(-c2cncc(C(=O)NC3CCC(F)(F)CC3)c2N2CC[C@](C)(N)C2)c1 [1-12, 4-[(3S)-3-amino-3-methylpyrrolidin-1-yl]-N-(4,4-difluorocyclohexyl)-5-(3,5-dimethylphenyl)pyridine-3-carboxamide] |
| < 10 nM | +++ (+++=>500) | < 10 nM | 10 to 100 nM | Cc1cc(F)cc(-c2cncc(C(=O)NC(C)C3CC3)c2N2CC[C@](C)(N)C2)c1 (stereo partly drawn) [1-24, 4-[(3S)-3-amino-3-methylpyrrolidin-1-yl]-N-(1-cyclopropylethyl)-5-(3-fluoro-5-methylphenyl)pyridine-3-carboxamide] |
| < 10 nM | +++ (+++=>500) | < 10 nM | 100 to 1000 nM | C[C@]1(N)CCN(c2c(C(=O)NC(C3CC3)C3CC3)cncc2-c2cc(F)cc(F)c2)C1 [1-51, 4-[(3S)-3-amino-3-methylpyrrolidin-1-yl]-N-(dicyclopropylmethyl)-5-(3,5-difluorophenyl)pyridine-3-carboxamide] |
| < 10 nM | +++ (+++=>500) | < 10 nM | > 1000 nM | COc1ncc(C(=O)N[C@@H](C)C2CC2)c(N2CC[C@](C)(N)C2)c1-c1ccnc(C(F)(F)F)c1 [1-166, 4-[(3S)-3-amino-3-methylpyrrolidin-1-yl]-N-[(1S)-1-cyclopropylethyl]-2-methoxy-2′-(trifluoromethyl)-[3,4′-bipyridine]-5-carboxamide] |

The next lines start with the compound.

| Structure (SMILES) | EC50 ([1]; Table A) | Fold selectivity for SST5 vs SST2 ([1]; Table B) | EC50 ([1]; Table B) | EC50 [2] |
| --- | --- | --- | --- | --- |
| COc1cc(-c2c(C#N)ncc(C(=O)N[C@@H](C)C(F)(F)F)c2N2CC[C@](C)(N)C2)ccn1 [1-170, 4-[(3S)-3-amino-3-methylpyrrolidin-1-yl]-2-cyano-2′-methoxy-N-[(2S)-1,1,1-trifluoropropan-2-yl]-[3,4′-bipyridine]-5-carboxamide] | < 10 nM | +++ (+++=>500) | < 10 nM | 100 to 1000 nM |
| C[C@H](NC(=O)c1cnc(C#N)c(-c2ccnc(C(F)(F)F)c2)c1N1CC[C@](C)(N)C1)C1CC1 [1-129, 4-[(3S)-3-amino-3-methylpyrrolidin-1-yl]-2-cyano-N-[(1S)-1-cyclopropylethyl]-2′-(trifluoromethyl)-[3,4′-bipyridine]-5-carboxamide] | < 10 nM | +++ (+++=>500) | < 10 nM | 100 to 1000 nM |
| COc1ncc(C(=O)N[C@@H](C)C(F)(F)F)c(N2CC[C@](C)(N)C2)c1-c1cccc2c1cnn2C [1-183, 4-[(3S)-3-amino-3-methylpyrrolidin-1-yl]-6-methoxy-5-(1-methyl-1H-indazol-4-yl)-N-[(2S)-1,1,1-trifluoropropan-2-yl]pyridine-3-carboxamide] | < 10 nM | +++ (+++=>500) | < 10 nM | > 1000 nM |
| COC[C@@]1(N)CCN(c2c(C(=O)N[C@@H](C)C3CC3)cnc(C#N)c2-c2cc(F)cc(F)c2)C1 [1-116, 4-[(3R)-3-amino-3-(methoxymethyl)pyrrolidin-1-yl]-6-cyano-N-[(1S)-1-cyclopropylethyl]-5-(3,5-difluorophenyl)pyridine-3-carboxamide] | < 10 nM | +++ (+++=>500) | < 10 nM | > 1000 nM |
| C[C@H](NC(=O)c1cnc(C#N)c(-c2cc(F)cc(F)c2)c1N1CC[C@](C)(N)C1)c1ccccn1 [1-103, 4-[(3S)-3-amino-3-methylpyrrolidin-1-yl]-6-cyano-5-(3,5-difluorophenyl)-N-[(1S)-1-(pyridin-2-yl)ethyl]pyridine-3-carboxamide] | < 10 nM | +++ (+++=>500) | < 10 nM | > 1000 nM |
| C[C@]1(N)CCN(c2c(C(=O)NC3CCC(F)(F)CC3)cncc2-c2cc(F)cc(F)c2)C1 [1-16, 4-[(3S)-3-amino-3-methylpyrrolidin-1-yl]-N-(4,4-difluorocyclohexyl)-5-(3,5-difluorophenyl)pyridine-3-carboxamide] | < 10 nM | +++ (+++=>500) | < 10 nM | 100 to 1000 nM |
| CCC(CC)NC(=O)c1cnc(C#N)c(-c2ccnc(C(F)(F)F)c2)c1N1CC[C@](C)(N)C1 [1-249, 4-[(3S)-3-amino-3-methylpyrrolidin-1-yl]-2-cyano-N-(pentan-3-yl)-2′-(trifluoromethyl)-[3,4′-bipyridine]-5-carboxamide] | < 10 nM | +++ (+++=>500) | < 10 nM | 100 to 1000 nM |
| C[C@H](NC(=O)c1cnc(C#N)c(-c2ccnc(C(F)(F)F)c2)c1N1CC[C@](C)(N)C1)C(F)(F)F [1-169, 4-[(3S)-3-amino-3-methylpyrrolidin-1-yl]-2-cyano-2′-(trifluoromethyl)-N-[(2S)-1,1,1-trifluoropropan-2-yl]-[3,4′-bipyridine]-5-carboxamide] | < 10 nM | +++ (+++=>500) | < 10 nM | 100 to 1000 nM |
| C[C@H](NC(=O)c1cnc(C#N)c(-c2cc(F)cc(F)c2)c1N1CC[C@H](N)C1)C1CC1 [1-69, 4-[(3S)-3-aminopyrrolidin-1-yl]-6-cyano-N-[(1S)-1-cyclopropylethyl]-5-(3,5-difluorophenyl)pyridine-3-carboxamide] | < 10 nM | +++ (+++=>500) | < 10 nM | 100 to 1000 nM |
| Cc1ncc(C(=O)N[C@@H](C)C(F)(F)F)c(N2CC[C@H](N)C2)c1-c1cccc(OC(F)F)c1 [1-232, 4-[(3S)-3-aminopyrrolidin-1-yl]-5-[3-(difluoromethoxy)phenyl]-6-methyl-N-[(2S)-1,1,1-trifluoropropan-2-yl]pyridine-3-carboxamide] | < 10 nM | +++ (+++=>500) | < 10 nM | > 1000 nM |
